Data on one compound can be found in paper PMC6694107, “Characterization and overproduction of cell-associated cholesterol oxidase ChoD from Streptomyces lavendulae YAKB-15” (Scientific Reports, 2019).

For the test, the system named is T1, ChoD.
T1 construct: ORF 547 aa including TAT signal; FAD enzyme
The test is described as follows: ABTS/peroxidase coupled H2O2 assay, […] nm, initial rates. Format: biochemical, Streptomyces lavendulae. As to conditions: pH 7 sodium-potassium phosphate, Triton X-100, ethanol (general assay); 8.4 nM enzyme, 4-168 µM cholesterol.

For orientation: Km means the concentration of substrate that gives half-maximal velocity. With `CC(C)CCC[C@@H](C)[C@H]1CC[C@H]2[C@@H]3CC=C4C[C@@H](O)CC[C@]4(C)[C@H]3CC[C@]12C` [cholesterol], the Km was found to be 15.9 µM.
